The text below walks through data of ChEMBL document CHEMBL5291721, “A preclinical secondary pharmacology resource illuminates target-adverse drug reaction associations of marketed drugs” (Nat Commun, 2023).

For experiment [1], the target named is T1, Muscarinic acetylcholine receptor M5 (Homo sapiens, UniProt P08912).
T1 sequence (P08912 whole entry): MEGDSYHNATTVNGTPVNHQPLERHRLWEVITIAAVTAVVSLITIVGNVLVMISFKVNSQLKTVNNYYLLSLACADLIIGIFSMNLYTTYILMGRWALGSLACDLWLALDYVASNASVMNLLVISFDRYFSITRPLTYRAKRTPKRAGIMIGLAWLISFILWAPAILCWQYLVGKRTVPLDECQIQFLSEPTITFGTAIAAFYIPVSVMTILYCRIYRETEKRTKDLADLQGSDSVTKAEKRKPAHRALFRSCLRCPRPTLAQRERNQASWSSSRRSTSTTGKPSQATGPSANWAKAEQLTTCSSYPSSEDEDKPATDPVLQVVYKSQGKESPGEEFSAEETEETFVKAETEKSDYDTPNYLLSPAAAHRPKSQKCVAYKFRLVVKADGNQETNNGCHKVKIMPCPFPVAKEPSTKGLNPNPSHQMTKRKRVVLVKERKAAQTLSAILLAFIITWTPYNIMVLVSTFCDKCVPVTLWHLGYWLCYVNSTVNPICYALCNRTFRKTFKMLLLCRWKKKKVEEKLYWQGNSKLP

Experiment [2] addresses T2, Type-2 angiotensin II receptor (Homo sapiens, UniProt P50052).
T2 sequence (P50052 whole entry): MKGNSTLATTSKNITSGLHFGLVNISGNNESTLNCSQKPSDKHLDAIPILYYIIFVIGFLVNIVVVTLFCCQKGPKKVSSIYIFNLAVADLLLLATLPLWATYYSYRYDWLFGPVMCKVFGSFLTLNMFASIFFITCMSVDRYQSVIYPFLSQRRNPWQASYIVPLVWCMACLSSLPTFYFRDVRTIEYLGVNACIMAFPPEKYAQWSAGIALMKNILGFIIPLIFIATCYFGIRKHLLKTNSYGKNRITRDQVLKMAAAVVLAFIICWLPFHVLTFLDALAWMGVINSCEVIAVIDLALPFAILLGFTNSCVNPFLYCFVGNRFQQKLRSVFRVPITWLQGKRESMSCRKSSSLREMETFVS
Format: functional.

A further experiment deals with D(1A) dopamine receptor (Homo sapiens, UniProt P21728).
The target in experiment [3] is 5-hydroxytryptamine receptor 5A (Homo sapiens, UniProt P47898).
In a further experiment the target is D(1B) dopamine receptor (Homo sapiens, UniProt P21918).
The target in experiment [4] is T3, Muscarinic acetylcholine receptor M4 (Homo sapiens, UniProt P08173).
T3 sequence (P08173 whole entry): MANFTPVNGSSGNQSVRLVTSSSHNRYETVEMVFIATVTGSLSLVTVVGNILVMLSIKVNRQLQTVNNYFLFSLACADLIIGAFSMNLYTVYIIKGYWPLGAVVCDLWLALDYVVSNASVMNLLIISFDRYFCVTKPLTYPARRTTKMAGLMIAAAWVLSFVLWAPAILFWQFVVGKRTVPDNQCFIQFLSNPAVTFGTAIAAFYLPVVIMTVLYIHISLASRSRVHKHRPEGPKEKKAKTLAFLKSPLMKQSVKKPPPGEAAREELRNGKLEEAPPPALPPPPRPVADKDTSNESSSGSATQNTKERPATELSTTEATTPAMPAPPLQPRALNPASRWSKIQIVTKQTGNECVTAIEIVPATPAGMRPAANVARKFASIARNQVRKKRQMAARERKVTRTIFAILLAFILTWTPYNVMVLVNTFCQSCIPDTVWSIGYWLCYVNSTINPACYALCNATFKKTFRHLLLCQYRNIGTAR

Experiment [5] has as its target T4, Estrogen receptor (Homo sapiens, UniProt P03372).
T4 sequence (P03372 whole entry): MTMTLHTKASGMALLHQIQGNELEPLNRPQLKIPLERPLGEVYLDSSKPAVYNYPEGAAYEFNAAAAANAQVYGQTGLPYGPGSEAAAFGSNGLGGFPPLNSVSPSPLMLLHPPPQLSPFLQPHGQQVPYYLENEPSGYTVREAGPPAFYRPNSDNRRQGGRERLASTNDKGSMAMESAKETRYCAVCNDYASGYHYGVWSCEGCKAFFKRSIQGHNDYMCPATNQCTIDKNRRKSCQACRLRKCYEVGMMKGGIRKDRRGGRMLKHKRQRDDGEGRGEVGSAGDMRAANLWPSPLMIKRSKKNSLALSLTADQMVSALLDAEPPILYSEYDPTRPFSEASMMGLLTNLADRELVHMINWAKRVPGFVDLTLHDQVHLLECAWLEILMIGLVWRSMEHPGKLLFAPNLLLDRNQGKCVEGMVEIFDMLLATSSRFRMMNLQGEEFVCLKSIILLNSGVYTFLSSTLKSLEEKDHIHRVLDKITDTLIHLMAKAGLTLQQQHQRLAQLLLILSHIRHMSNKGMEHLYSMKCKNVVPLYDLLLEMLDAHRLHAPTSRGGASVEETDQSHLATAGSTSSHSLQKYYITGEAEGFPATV
It counts as functional.

For a further experiment, the target named is T5, Glucocorticoid receptor (Homo sapiens, UniProt P04150).
T5 sequence (P04150 whole entry): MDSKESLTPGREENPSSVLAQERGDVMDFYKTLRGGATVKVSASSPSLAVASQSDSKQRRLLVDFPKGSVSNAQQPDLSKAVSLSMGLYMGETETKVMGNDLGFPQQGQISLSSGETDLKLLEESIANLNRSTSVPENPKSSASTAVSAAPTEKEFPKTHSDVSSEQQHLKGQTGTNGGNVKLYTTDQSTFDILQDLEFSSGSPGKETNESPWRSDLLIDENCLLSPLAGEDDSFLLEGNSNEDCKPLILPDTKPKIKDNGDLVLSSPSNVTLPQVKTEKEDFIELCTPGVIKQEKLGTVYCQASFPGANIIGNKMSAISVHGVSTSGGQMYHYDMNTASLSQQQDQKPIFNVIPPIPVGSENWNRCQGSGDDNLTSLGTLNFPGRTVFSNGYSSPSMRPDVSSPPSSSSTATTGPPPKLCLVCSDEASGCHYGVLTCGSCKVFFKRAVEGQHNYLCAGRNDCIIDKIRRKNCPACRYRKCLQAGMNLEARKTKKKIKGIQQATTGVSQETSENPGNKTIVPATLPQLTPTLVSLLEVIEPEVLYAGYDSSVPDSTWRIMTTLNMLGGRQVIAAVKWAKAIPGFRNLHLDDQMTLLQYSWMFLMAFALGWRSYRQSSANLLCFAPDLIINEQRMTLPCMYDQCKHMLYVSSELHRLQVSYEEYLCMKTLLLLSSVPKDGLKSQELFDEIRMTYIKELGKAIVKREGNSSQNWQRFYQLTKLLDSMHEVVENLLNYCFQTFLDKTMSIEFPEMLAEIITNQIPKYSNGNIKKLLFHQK
Format: functional.

Experiment [6] has as its target T4, Estrogen receptor. It counts as functional. The source holds these as a separate data set.

Where only a bound is given, the exact number is not on record here.
Further: assay procedure not described here.

5-hydroxytryptamine receptor 5A, sequence (P47898 whole entry): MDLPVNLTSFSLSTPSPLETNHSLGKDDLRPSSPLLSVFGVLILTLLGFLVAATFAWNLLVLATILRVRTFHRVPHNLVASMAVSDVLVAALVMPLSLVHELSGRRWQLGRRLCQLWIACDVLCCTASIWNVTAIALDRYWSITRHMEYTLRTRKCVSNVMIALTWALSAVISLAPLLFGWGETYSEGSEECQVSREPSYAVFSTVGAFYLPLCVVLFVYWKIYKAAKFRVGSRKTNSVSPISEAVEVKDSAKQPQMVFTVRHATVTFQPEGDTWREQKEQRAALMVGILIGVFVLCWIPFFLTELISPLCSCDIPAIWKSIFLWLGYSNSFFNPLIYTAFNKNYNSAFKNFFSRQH
D(1B) dopamine receptor, sequence (P21918 whole entry): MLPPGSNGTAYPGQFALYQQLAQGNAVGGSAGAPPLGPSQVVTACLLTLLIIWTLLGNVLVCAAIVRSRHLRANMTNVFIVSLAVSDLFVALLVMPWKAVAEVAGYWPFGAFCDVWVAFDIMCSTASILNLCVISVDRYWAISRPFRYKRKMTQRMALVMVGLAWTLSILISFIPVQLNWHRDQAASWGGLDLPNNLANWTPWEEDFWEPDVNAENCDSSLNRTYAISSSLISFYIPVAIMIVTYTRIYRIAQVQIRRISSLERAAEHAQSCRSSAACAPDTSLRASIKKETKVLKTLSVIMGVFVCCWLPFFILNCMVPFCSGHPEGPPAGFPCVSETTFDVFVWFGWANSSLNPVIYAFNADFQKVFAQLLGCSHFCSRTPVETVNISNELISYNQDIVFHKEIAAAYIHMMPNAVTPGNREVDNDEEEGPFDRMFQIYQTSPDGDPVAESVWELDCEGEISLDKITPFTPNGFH
D(1A) dopamine receptor, sequence (P21728 whole entry): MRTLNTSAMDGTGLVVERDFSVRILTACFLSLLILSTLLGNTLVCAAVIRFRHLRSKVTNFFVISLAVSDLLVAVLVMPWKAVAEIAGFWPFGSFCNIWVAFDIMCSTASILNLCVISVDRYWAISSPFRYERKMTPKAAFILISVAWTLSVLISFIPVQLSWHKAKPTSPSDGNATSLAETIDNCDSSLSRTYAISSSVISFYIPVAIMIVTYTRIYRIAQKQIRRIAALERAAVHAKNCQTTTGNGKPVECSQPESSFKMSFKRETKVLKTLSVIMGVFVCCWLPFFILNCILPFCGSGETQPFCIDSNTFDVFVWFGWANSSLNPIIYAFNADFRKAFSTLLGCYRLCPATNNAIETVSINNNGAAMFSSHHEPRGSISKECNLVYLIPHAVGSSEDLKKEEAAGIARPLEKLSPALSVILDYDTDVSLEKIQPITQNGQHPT

In [1], `COc1ccc2c3c1O[C@H]1[C@@H](O)C=C[C@H]4[C@@H](C2)N(C)CC[C@@]341` [CODEINE] displayed an AC50 of more than 10 µM.

The compound `CCCc1nc(C(C)(C)O)c(C(=O)OCc2oc(=O)oc2C)n1Cc1ccc(-c2ccccc2-c2nnn[nH]2)cc1` [OLMESARTAN MEDOXOMIL] showed an AC50 in [2] of 74.3 µM.

At D(1A) dopamine receptor, `CN1CCN(CC/C=C2/c3ccccc3Sc3ccc(S(=O)(=O)N(C)C)cc32)CC1` [THIOTHIXENE] registered an AC50 of 0.019 µM.

`C=CCN1CCCC1CNC(=O)c1cc(S(N)(=O)=O)cc(OC)c1OC` (centres undefined) [VERALIPRIDE] came in with an AC50 at D(1A) dopamine receptor of 0.013 µM.

Regarding `N#Cc1ccc([C@H]2CCc3cncn32)c(F)c1` [OSILODROSTAT], the AC50 (in experiment [1]; in experiment [3]; on D(1B) dopamine receptor; in experiment [4]) was more than 10 µM throughout.

Turning to `CCCCc1ncc(/C=C(\Cc2cccs2)C(=O)O)n1Cc1ccc(C(=O)O)cc1` [EPROSARTAN], the AC50 was more than 10 µM in [1]; more than 10 µM in experiment [3]; more than 10 µM on D(1B) dopamine receptor; more than 100 µM in experiment [2]; more than 10 µM in [4].

As for `CC(=O)O[C@H]1CC[C@@]2(C)C(=CC[C@@H]3[C@@H]2CC[C@]2(C)C(c4cccnc4)=CC[C@@H]32)C1` [ABIRATERONE ACETATE], the AC50 at Estrogen receptor [5], on Glucocorticoid receptor and on Estrogen receptor [6] was more than 30 µM in each case.

As to `C/C(O)=C(\C#N)C(=O)Nc1ccc(C(F)(F)F)cc1` [TERIFLUNOMIDE], the AC50 on Estrogen receptor [5], at Glucocorticoid receptor and at Estrogen receptor [6] was more than 30 µM each time.

In general, AC50 refers to the midpoint of the concentration-response curve, whichever way the signal moves. A low value points to greater potency.
